Test results taken from publication PMC13195669, “GPR3 Ligands Discovered through Combined Virtual and Conformational Biosensor-Based Screening” (Journal of the American Chemical Society, 2026).

Columns and labels:
LPA receptor 1 (LPAR1) = biological target: T1, LPA receptor 1 (LPAR1) (Homo sapiens, UniProt Q92633); experiment: cAMP GloSensor 22F, agonist-stimulated LPAR1; format: cell-based; conditions: preincubation with 100 μM or 10 μM; 10 µM forskolin
T1 construct: expressed in transfected cells; host or cells: HEK293A, transient
T1 sequence (Q92633 whole entry, species assumed): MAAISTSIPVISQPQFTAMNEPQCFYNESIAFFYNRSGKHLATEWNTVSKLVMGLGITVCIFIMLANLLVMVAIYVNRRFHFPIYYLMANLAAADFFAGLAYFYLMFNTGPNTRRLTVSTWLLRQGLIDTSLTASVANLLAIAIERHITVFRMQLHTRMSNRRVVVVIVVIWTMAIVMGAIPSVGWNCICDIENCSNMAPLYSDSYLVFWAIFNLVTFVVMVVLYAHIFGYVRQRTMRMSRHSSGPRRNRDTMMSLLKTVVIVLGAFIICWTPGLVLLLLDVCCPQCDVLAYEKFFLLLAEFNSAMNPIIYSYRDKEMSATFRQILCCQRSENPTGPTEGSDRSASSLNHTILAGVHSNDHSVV
Method: (§1) Next, we used the classical cAMP GloSensor technology to assess the target selectivity profile of 33. […] In addition, we tested the effects of 33 on cAMP changes mediated by agonist-stimulated GPCRs phylogenetically close to GPR3 and coupling to Gs or Gi/o proteins.
(§2) BRET-based GPCR conformational sensor experiments
(§3) Cells expressing the conformational GPCR biosensors were grown for 24 h (stable cells) or 48 h (transiently transfected cells) in white 96-well plates and washed with 100 µl of HBSS. After washing, cells were incubated for 2 minutes with a 1/1000 solution of the furimazine stock solution (Promega; cat. no. N1662). Three baseline BRET reads were recorded and averaged prior to the addition of serial dilutions of ligands or veh icle control and subsequent BRET reads. […] BRE T donor emission was quantified with a 470/80 nm monochromator. […] Experiments were carried out using a CLARIOstar plate reader.
(§4) FRET- and BRET-based measurements of cAMP levels and Gs dissociation/reassociation Transfected cells grown in black 96-well plates were washed twice with 100 µl of HBSS 48 h after transfection and incubated with HBSS. […] Three baseline FRET/BRET reads were recorded and averaged prior to the addition of serial dilutions of ligands or vehicle control and sub-sequent FRET/BRET reads. […] FRET donor emission was quantified with a 480/10 nm filter. […]
(§5) Luminescence measurement using the cAMP GloSensor™ 22F […]

[1] = biological target: T2, cannabinoid receptor 1 (CB1R) (Homo sapiens, UniProt P21554); experiment: cAMP GloSensor 22F, agonist-stimulated CB1R; format: cell-based; conditions: preincubation with 100 μM or 10 μM; 10 µM forskolin
T2 construct: expressed in transfected cells; host or cells: HEK293A, transient
T2 sequence (P21554 whole entry, species assumed): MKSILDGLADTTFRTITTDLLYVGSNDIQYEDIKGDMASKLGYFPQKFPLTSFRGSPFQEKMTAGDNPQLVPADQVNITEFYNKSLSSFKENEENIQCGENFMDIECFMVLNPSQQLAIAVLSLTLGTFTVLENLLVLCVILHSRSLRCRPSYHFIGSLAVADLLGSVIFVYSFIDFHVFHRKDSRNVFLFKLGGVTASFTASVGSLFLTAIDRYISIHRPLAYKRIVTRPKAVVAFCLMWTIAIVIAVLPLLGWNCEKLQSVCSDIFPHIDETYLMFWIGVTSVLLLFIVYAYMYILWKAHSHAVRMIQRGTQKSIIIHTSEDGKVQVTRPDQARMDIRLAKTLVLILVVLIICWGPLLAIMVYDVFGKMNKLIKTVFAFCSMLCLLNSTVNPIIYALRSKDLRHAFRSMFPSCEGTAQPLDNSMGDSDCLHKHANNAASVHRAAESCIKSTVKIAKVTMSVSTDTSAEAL
Method: as §1, §2, §3, §4, §5

`N=c1n(Cc2ccccc2)c2ccccc2n1CC1CC1` [compound 33] was tested, and the “effect on agonist-induced cAMP change mediated by LPAR1” value (LPA receptor 1 (LPAR1)) was “neither 100 μM nor 10 μM 33 significantly altered” and the “effect on agonist-induced cAMP change mediated by CB1R” value [1] was “neither 100 μM nor 10 μM 33 significantly altered”.
